Laboratory results reported in ChEMBL document CHEMBL1150976, “The selectivity of protein kinase inhibitors: a further update” (Biochem J, 2007).

Tests used:
[1] = target: Mitogen-activated protein kinase 14 (Homo sapiens, UniProt Q16539); test: Percentage p38alpha activity remaining in the presence of 0.1uM inhibitor
[2] = target: Ribosomal protein S6 kinase alpha-1 (Homo sapiens) (UniProt Q15418); test: Percentage RSK1 activity remaining in the presence of 0.1uM inhibitor
[3] = target: T1, Dual specificity tyrosine-phosphorylation-regulated kinase 3 (Homo sapiens) (UniProt O43781); test: Percentage DYRK3 activity remaining in the presence of 0.1uM inhibitor
T1 sequence (whole entry): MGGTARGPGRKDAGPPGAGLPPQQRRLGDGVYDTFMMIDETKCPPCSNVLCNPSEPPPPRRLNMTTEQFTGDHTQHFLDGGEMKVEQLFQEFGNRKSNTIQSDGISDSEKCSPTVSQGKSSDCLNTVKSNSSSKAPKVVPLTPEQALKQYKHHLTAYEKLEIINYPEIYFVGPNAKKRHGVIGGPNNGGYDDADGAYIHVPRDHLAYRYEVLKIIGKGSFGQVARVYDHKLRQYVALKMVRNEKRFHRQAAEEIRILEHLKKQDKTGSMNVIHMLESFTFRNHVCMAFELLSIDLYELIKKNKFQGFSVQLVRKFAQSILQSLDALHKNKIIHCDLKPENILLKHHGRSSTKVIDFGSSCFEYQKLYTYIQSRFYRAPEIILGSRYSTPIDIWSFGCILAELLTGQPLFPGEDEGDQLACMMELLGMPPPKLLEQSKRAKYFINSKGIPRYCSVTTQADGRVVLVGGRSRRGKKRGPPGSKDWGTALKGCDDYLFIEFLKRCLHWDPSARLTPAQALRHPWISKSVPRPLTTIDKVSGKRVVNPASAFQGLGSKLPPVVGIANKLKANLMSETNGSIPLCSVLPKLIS

[4] = target: Mitogen-activated protein kinase 10 (Homo sapiens) (UniProt P53779); test: Percentage JNK3 activity remaining in the presence of 0.1uM inhibitor
Sequence of Mitogen-activated protein kinase 10 (Homo sapiens) (P53779 whole entry): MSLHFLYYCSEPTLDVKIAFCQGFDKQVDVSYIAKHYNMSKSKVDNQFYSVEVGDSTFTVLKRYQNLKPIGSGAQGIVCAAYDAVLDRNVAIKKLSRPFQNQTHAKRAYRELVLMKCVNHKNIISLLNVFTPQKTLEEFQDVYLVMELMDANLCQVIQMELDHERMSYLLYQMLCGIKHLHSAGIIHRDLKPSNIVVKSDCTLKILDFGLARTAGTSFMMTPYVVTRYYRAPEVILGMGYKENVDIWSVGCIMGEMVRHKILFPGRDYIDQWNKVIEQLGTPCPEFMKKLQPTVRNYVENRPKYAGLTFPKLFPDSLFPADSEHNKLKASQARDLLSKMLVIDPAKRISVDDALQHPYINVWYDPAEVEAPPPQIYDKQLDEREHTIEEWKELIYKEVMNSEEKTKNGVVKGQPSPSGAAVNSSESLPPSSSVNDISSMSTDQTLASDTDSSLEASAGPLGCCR

[5] = target: T2, Serine/threonine-protein kinase Chk1 (Homo sapiens) (UniProt O14757); test: Percentage CHK1 activity remaining in the presence of 0.1uM inhibitor
T2 sequence (whole entry): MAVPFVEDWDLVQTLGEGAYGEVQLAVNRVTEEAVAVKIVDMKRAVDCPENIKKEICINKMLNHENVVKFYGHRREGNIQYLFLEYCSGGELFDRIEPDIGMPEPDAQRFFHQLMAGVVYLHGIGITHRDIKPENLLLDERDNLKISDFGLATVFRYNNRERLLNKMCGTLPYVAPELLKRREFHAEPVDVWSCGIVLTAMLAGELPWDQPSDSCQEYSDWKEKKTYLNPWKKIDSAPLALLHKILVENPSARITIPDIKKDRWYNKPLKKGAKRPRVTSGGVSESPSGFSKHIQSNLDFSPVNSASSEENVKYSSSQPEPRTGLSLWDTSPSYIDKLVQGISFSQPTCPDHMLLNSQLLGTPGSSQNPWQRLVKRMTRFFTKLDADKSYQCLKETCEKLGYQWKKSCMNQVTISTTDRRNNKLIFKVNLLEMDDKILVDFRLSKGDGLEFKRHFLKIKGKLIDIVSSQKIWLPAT

[6] = target: Serine/threonine-protein kinase PAK 5 (Homo sapiens) (UniProt Q9P286); test: Percentage PAK5 activity remaining in the presence of 0.1uM inhibitor
Sequence of Serine/threonine-protein kinase PAK 5 (Homo sapiens) (Q9P286 whole entry, looked up): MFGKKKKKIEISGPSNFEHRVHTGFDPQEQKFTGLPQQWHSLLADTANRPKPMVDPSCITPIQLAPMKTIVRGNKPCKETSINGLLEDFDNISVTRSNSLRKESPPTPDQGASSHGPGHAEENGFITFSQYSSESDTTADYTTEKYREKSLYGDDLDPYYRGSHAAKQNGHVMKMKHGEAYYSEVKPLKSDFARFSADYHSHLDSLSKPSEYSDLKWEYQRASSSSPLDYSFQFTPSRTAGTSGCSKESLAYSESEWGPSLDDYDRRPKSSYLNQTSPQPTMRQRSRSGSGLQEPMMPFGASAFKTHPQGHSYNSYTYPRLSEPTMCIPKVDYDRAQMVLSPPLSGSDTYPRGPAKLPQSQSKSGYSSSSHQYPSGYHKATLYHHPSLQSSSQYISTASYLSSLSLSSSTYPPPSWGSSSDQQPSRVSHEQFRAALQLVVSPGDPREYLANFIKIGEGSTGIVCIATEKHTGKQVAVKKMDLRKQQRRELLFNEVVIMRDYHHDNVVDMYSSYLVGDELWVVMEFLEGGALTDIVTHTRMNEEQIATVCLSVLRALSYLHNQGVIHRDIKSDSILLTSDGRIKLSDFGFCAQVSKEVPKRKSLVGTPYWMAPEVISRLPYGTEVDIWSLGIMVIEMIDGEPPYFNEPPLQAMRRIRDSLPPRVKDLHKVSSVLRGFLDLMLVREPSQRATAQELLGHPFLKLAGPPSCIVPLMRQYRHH

[7] = target: Serine/threonine-protein kinase Nek7 (Homo sapiens) (UniProt Q8TDX7); test: Percentage NEK7 activity remaining in the presence of 0.1uM inhibitor
Sequence of Serine/threonine-protein kinase Nek7 (Homo sapiens) (Q8TDX7 whole entry, looked up): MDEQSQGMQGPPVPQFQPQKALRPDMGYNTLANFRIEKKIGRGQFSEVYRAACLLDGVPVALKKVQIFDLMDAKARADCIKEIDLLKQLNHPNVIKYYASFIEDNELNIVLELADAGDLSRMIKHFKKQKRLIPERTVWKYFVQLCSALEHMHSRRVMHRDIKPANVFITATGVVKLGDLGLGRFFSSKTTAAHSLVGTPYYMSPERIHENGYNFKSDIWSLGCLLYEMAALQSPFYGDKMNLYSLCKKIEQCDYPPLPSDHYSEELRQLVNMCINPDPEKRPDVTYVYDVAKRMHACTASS

[8] = target: MAP/microtubule affinity-regulating kinase 3 (Homo sapiens) (UniProt P27448); test: Percentage MARK3 activity remaining in the presence of 0.1uM inhibitor
[9] = target: T3, MAP kinase-activated protein kinase 5 (Homo sapiens) (UniProt Q8IW41); test: Percentage PRAK activity remaining in the presence of 0.1uM inhibitor
T3 sequence (whole entry): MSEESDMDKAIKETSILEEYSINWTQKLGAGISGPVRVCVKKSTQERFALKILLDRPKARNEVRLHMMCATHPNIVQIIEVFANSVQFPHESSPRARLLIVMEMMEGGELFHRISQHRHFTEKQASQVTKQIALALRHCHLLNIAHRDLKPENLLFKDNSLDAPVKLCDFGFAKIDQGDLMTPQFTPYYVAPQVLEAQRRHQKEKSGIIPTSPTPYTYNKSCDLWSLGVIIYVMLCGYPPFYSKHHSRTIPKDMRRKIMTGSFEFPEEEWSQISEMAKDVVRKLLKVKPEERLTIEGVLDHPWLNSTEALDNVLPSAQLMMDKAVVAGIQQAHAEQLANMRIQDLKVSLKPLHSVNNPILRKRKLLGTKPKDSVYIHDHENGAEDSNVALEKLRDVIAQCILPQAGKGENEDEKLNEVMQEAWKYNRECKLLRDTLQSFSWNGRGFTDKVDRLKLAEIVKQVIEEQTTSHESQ

[10] = target: Protein kinase C alpha type (Homo sapiens) (UniProt P17252); test: Percentage PKCalpha activity remaining in the presence of 0.1uM inhibitor
[11] = target: Myosin light chain kinase, smooth muscle (Homo sapiens, UniProt Q15746); test: Percentage SmMLCK activity remaining in the presence of 0.1uM inhibitor
Sequence of Myosin light chain kinase, smooth muscle (Q15746 whole entry): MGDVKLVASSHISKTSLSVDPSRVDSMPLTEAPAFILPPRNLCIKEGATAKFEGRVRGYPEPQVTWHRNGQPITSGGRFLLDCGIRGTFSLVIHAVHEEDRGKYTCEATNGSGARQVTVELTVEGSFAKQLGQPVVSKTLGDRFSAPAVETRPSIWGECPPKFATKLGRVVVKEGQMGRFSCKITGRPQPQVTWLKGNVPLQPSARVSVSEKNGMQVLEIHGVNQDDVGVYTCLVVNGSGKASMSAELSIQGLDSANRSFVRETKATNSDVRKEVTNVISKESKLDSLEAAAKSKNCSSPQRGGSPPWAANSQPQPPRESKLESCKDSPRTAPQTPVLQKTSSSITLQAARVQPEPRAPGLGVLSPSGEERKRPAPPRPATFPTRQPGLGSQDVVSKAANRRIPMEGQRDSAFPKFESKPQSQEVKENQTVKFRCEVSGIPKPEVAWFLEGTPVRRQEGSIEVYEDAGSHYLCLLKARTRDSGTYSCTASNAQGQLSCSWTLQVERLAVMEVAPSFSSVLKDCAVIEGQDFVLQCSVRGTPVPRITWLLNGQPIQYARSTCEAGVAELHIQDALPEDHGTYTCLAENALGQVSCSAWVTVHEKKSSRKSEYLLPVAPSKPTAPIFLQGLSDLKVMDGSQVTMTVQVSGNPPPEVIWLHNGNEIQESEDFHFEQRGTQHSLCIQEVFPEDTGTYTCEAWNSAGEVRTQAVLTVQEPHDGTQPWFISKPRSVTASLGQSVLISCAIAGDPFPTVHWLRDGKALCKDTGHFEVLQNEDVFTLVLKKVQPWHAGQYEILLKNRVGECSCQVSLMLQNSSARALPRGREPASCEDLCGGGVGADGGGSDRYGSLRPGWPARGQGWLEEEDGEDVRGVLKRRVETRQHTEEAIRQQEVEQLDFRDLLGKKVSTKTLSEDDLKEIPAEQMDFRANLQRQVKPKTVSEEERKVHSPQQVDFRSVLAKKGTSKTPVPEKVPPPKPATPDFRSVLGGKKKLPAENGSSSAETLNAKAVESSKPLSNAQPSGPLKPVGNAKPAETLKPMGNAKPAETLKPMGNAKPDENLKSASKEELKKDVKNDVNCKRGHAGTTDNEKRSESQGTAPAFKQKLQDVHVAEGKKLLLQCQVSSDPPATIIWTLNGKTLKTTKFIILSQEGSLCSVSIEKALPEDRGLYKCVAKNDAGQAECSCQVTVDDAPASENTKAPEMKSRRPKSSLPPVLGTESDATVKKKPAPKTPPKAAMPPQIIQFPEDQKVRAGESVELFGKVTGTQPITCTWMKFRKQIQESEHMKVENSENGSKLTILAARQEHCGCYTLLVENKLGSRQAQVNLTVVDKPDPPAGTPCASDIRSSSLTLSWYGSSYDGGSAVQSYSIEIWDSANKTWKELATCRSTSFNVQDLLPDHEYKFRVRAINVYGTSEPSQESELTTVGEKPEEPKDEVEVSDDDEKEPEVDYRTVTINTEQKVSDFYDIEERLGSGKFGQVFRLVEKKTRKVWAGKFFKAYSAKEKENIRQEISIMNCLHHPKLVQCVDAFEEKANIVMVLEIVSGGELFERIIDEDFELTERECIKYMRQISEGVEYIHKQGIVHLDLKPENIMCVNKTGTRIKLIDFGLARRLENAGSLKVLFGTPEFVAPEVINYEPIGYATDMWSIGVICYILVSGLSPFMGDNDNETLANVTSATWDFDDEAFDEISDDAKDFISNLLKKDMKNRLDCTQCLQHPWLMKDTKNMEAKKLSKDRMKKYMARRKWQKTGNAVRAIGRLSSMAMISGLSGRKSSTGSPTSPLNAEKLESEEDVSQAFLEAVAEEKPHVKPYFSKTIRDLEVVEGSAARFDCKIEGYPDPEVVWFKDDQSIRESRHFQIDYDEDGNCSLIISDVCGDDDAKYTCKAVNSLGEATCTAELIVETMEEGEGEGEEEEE

[12] = target: T4, Serine/threonine-protein kinase 3 (Homo sapiens) (UniProt Q13188); test: Percentage MST2 activity remaining in the presence of 0.1uM inhibitor
T4 sequence (whole entry): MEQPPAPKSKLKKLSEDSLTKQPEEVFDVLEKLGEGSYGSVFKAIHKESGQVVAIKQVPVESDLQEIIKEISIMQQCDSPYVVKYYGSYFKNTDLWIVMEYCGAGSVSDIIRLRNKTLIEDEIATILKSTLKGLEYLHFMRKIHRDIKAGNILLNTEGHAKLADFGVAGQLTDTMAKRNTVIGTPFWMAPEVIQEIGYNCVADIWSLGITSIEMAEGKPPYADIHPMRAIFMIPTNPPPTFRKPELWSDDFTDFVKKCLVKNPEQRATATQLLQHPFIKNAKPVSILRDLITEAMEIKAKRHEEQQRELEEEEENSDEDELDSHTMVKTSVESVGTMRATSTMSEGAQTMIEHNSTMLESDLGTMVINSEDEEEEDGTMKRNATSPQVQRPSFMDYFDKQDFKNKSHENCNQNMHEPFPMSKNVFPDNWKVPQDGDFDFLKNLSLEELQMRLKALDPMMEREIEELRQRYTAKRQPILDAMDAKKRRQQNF

Rattus norvegicus = species on record: Rattus norvegicus; test: Percentage AMPK activity remaining in the presence of 0.1uM inhibitor
Aurora kinase B = Aurora kinase B (Homo sapiens, UniProt Q96GD4); test: Percentage Aurora B activity remaining in the presence of 0.1uM inhibitor
[13] = target: Casein kinase II (Homo sapiens) (UniProt P67870+P68400+P19784); test: Percentage CK2 activity remaining in the presence of 0.1uM inhibitor; format: protein-complex assay
[14] = target: Mitogen-activated protein kinase 3 (Homo sapiens) (UniProt P27361); test: Percentage ERK1 activity remaining in the presence of 0.1uM inhibitor
[15] = target: MAP kinase-activated protein kinase 3 (Homo sapiens) (UniProt Q16644); test: Percentage MAPKAPK3 activity remaining in the presence of 0.1uM inhibitor
Sequence of MAP kinase-activated protein kinase 3 (Homo sapiens) (Q16644 whole entry, looked up): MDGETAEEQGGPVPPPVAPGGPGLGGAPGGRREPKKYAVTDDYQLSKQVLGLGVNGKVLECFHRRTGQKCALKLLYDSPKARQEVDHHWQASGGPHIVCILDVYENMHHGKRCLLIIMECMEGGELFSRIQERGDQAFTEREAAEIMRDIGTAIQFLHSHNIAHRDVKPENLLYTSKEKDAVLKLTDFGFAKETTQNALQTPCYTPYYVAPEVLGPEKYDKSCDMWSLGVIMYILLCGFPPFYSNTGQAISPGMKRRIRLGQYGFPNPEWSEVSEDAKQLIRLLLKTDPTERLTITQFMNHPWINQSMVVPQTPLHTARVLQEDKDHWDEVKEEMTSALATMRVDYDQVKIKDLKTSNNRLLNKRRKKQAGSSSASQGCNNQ

Sequence of Mitogen-activated protein kinase 14 (Q16539 whole entry): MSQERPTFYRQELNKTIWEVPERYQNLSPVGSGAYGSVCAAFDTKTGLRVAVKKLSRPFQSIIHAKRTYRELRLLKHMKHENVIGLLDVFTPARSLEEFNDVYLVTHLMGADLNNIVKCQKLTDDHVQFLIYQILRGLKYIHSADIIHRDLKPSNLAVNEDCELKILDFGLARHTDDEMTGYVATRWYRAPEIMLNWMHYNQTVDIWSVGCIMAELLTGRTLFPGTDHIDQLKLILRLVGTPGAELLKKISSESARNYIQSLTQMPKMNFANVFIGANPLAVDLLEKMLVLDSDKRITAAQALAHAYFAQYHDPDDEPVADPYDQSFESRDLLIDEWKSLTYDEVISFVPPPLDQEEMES

Compound CC(C)CCN1c2nc(Nc3cc(F)c(O)c(F)c3)ncc2N(C)C(=O)C1C (stereo unspecified) has an Activity [1] of 88%, an Activity ([2]; filed as antagonist) of 1% and an Activity [3] of 91%. For the same compound, the Activity [4] was 97%, the Activity [5] was 73% and the Activity [6] was 90%. The Activity [7] was 108%, the Activity [8] was 79% and the Activity [9] was 89%. The Activity [10] was 90%, the Activity [11] was 107% and the Activity ([12]; filed as antagonist) was 41%. It also gave an Activity (Rattus norvegicus) of 108%, an Activity (Aurora kinase B; filed as antagonist) of 22% and an Activity [13] of 97%. For the same compound, the Activity [14] was 115% and the Activity [15] was 108%.

With O=C(NCCCNc1nc(Nc2cccc(NC(=O)N3CCCC3)c2)ncc1I)c1cccs1 the Activity [1] was 87%, the Activity [2] was 55% and the Activity [3] was 65%. For the same compound, the Activity [4] was 93%, the Activity ([5]; filed as antagonist) was 46% and the Activity [6] was 81%. It also gave an Activity [7] of 99%, an Activity ([8]; filed as antagonist) of 3% and an Activity [9] of 83%. For the same compound, the Activity [10] was 74%, the Activity [11] was 95% and the Activity [12] was 92%. It also gave an Activity (Rattus norvegicus; filed as antagonist) of 11%, an Activity (Aurora kinase B; filed as antagonist) of 3% and an Activity [13] of 93%. For the same compound, the Activity [14] was 66% and the Activity [15] was 102%.

Cc1n[nH]c2ccc(-c3cncc(OC[C@@H](N)Cc4c[nH]c5ccccc45)c3)cc12 showed an Activity [1] of 92%, an Activity ([2]; filed as antagonist) of 32% and an Activity ([3]; filed as antagonist) of 8%. The Activity [4] was 86%, the Activity [5] was 99% and the Activity [6] was 96%. It also gave an Activity [7] of 84%, an Activity [8] of 83% and an Activity [9] of 107%. The Activity ([10]; filed as antagonist) was 29%, the Activity ([11]; filed as antagonist) was 27% and the Activity ([12]; filed as antagonist) was 29%. For the same compound, the Activity (Rattus norvegicus) was 67%, the Activity (Aurora kinase B) was 80% and the Activity [13] was 90%. It also gave an Activity [14] of 59% and an Activity [15] of 96%.

CC(C)[C@H](CO)Nc1nc(Nc2cccc(Cl)c2)c2ncn(C(C)C)c2n1 [PURVALANOLA] was tested, and the Activity [1] was 95%, the Activity [2] was 74% and the Activity [3] was 89%. It also gave an Activity [4] of 100%, an Activity [5] of 95% and an Activity [6] of 53%. The Activity [7] was 105%, the Activity [8] was 89% and the Activity [9] was 91%. For the same compound, the Activity [10] was 77%, the Activity [11] was 86% and the Activity [12] was 60%. The Activity (Rattus norvegicus) was 89%, the Activity (Aurora kinase B) was 89% and the Activity [13] was 99%. It also gave an Activity [14] of 95% and an Activity [15] of 88%.

Cn1cc(C2=C(c3cn(CCCSC(=N)N)c4ccccc34)C(=O)NC2=O)c2ccccc21 was tested, and the Activity [1] was 102%, the Activity ([2]; filed as antagonist) was 11% and the Activity [3] was 55%. It also gave an Activity [4] of 102%, an Activity [5] of 59% and an Activity [6] of 79%. The Activity [7] was 101%, the Activity [8] was 77% and the Activity [9] was 80%. It also gave an Activity ([10]; filed as antagonist) of 3%, an Activity [11] of 63% and an Activity [12] of 80%. The Activity (Rattus norvegicus) was 84%, the Activity (Aurora kinase B) was 80% and the Activity [13] was 99%. It also gave an Activity [14] of 88% and an Activity [15] of 90%.

CN(C)C[C@@H]1CCn2cc(c3ccccc32)C2=C(C(=O)NC2=O)c2cn(c3ccccc23)CCO1 gave an Activity ([2]; filed as antagonist) of 10%, an Activity [3] of 64% and an Activity [4] of 112%. The Activity [5] was 71%, the Activity [6] was 79% and the Activity [7] was 104%. For the same compound, the Activity [8] was 73%, the Activity [9] was 82% and the Activity [11] was 66%. It also gave an Activity ([12]; filed as antagonist) of 37%, an Activity (Rattus norvegicus) of 71% and an Activity (Aurora kinase B) of 65%. For the same compound, the Activity [13] was 89%, the Activity [14] was 84% and the Activity [15] was 90%.

Compound Cn1c2ccccc2c2c3c(c4c5ccccc5n(CCC#N)c4c21)CNC3=O has an Activity [1] of 100%, an Activity ([2]; filed as antagonist) of 6% and an Activity ([3]; filed as antagonist) of 28%. For the same compound, the Activity [4] was 79%, the Activity ([5]; filed as antagonist) was 1% and the Activity ([6]; filed as antagonist) was 6%. For the same compound, the Activity [7] was 98%, the Activity ([8]; filed as antagonist) was 12% and the Activity [9] was 76%. It also gave an Activity ([10]; filed as antagonist) of 2%, an Activity ([11]; filed as antagonist) of 40% and an Activity ([12]; filed as antagonist) of 3%. It also gave an Activity (Aurora kinase B; filed as antagonist) of 17%, an Activity [13] of 88% and an Activity ([14]; filed as antagonist) of 44%. For the same compound, the Activity [15] was 95%.
